Where two headings read alike, the source gives them in different places.
System: HBV
Assay: HBV replication inhibition assay (BDNA assay) in HepG2.2.15 cells
Format: cell-based
Conditions: HepG2.2.15 cells, read-out: DNA EC50
How it was run: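 Supernatant encapsidated HBV DNA was measured by bDNA after DNase digestion and proteinase K release. Stably HBV-integrated HepG2.2.15 cells had two 3-day compound exposures (0.5% DMSO). Signals were background-subtracted and normalized to DMSO wells, and EC50 was obtained by four-parameter fit.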

[1] = Hepatitis B virus, HepG2.2.15, HBV replication assay (BDNA assay)
[2] = HBV replication assay (BDNA assay)

Row | Compound | EC50 [1] [nM] | EC50 [2] [nM]
1 | CC(=O)NCC1Cn2nc3c(c2C(=O)N(C)O1)CN(C(=O)Nc1ccc(F)c(C(F)(F)F)c1F)CC3 (single isomer, unassigned) [Compound 172_E1, (S*)-4-(acetamidomethyl)-N-(2,4-difluoro-3-(trifluoromethyl)phenyl)-2-methyl-1-oxo-1,4,5,8,9,11-hexahydropyrido[4′,3′:3,4]pyrazolo[5,1-d][1,2,5]oxadiazepine-10(2H)-carboxamide] | 1 to 100 | 
2 | CC(=O)NCC1Cn2nc3c(c2C(=O)N(C)O1)CN(C(=O)Nc1cc(Cl)c(F)cc1F)CC3 (single isomer, unassigned) [Compound 173_E1, (S*)-4-(acetamidomethyl)-N-(5-chloro-2,4-difluorophenyl)-2-methyl-1-oxo-1,4,5,8,9,11-hexahydropyrido[4′,3′:3,4]pyrazolo[5,1-d][1,2,5]oxadiazepine-10(2H)-carboxamide] | 1 to 100 | 
3 | CC(=O)NCC1Cn2nc3c(c2C(=O)N(C)O1)CN(C(=O)Nc1cc(Br)c(F)cc1F)CC3 (single isomer, unassigned) [Compound 174_E1, (S*)-4-(acetamidomethyl)-N-(5-bromo-2,4-difluorophenyl)-2-methyl-1-oxo-1,4,5,8,9,11-hexahydropyrido[4′,3′:3,4]pyrazolo[5,1-d][1,2,5]oxadiazepine-10(2H)-carboxamide] | 1 to 100 | 
4 | CC(=O)NCC1Cn2nc3c(c2C(=O)N(C)O1)CN(C(=O)Nc1ccc(F)c(C(F)(F)F)c1)CC3 (single isomer, unassigned) [Compound 175_E1, (S*)-4-(acetamidomethyl)-N-(4-fluoro-3-(trifluoromethyl)phenyl)-2-methyl-1-oxo-1,4,5,8,9,11-hexahydropyrido[4′,3′:3,4]pyrazolo[5,1-d][1,2,5]oxadiazepine-10(2H)-carboxamide] | 1 to 100 | 
5 | CC(=O)NCC1Cn2nc3c(c2C(=O)N(C)O1)CN(C(=O)Nc1ccc(F)c(C#N)c1)[C@H](C)C3 (single isomer, unassigned) [Compound 176_D1, (4S*,9R)-4-(acetamidomethyl)-N-(3-cyano-4-fluorophenyl)-2,9-dimethyl-1-oxo-1,4,5,8,9,11-hexahydropyrido[4′,3′:3,4]pyrazolo[5,1-d][1,2,5]oxadiazepine-10(2H)-carboxamide] |  | 100 to 500
6 | CC(=O)NCC1Cn2nc3c(c2C(=O)N(C)O1)CN(C(=O)Nc1ccc(F)c(C#N)c1)[C@H](C)C3 (single isomer, unassigned) [Compound 176_D2, (4R*,9R)-4-(acetamidomethyl)-N-(3-cyano-4-fluorophenyl)-2,9-dimethyl-1-oxo-1,4,5,8,9,11-hexahydropyrido[4′,3′:3,4]pyrazolo[5,1-d][1,2,5]oxadiazepine-10(2H)-carboxamide] |  | 1 to 100
7 | CC(=O)NCC1Cn2nc3c(c2C(=O)N(C)O1)CN(C(=O)Nc1ccc(F)c(C(F)(F)F)c1)[C@H](C)C3 (single isomer, unassigned) [Compound 177_D1, (4S*,9R)-4-(acetamidomethyl)-N-(4-fluoro-3-(trifluoromethyl)phenyl)-2,9-dimethyl-1-oxo-1,4,5,8,9,11-hexahydropyrido[4′,3′:3,4]pyrazolo[5,1-d][1,2,5]oxadiazepine-10(2H)-carboxamide] | 1 to 100 | 
8 | CC(=O)NCC1Cn2nc3c(c2C(=O)N(C)O1)CN(C(=O)Nc1ccc(F)c(C(F)(F)F)c1)[C@H](C)C3 (single isomer, unassigned) [Compound 177_D2, (4R*,9R)-4-(acetamidomethyl)-N-(4-fluoro-3-(trifluoromethyl)phenyl)-2,9-dimethyl-1-oxo-1,4,5,8,9,11-hexahydropyrido[4′,3′:3,4]pyrazolo[5,1-d][1,2,5]oxadiazepine-10(2H)-carboxamide] |  | 1 to 100
9 | C[C@@H]1Cc2nn3c(c2CN1C(=O)Nc1ccc(F)c(C#N)c1)C(=O)N(C)OC(CNS(C)(=O)=O)C3 (single isomer, unassigned) [Compound 178_D1, (4S*,9R)—N-(3-cyano-4-fluorophenyl)-2,9-dimethyl-4-(methylsulfonamidomethyl)-1-oxo-1,4,5,8,9,11-hexahydropyrido[4′,3′:3,4]pyrazolo[5,1-d][1,2,5]oxadiazepine-10(2H)-carboxamide] |  | 100 to 500

From US10987359B2, “Oxadiazepinone derivatives and methods of treating hepatitis B infections” (priority 2016, dated 2021)
